The source made the active and inactive calls. The rule behind the calls is not given here.
Key:
NUGC-3 [1] = test: Antiproliferative activity against human NUGC3 cells at 0.3 uM by SRB assay; assay type: functional
NUGC-3 [2] = test: Antiproliferative activity against human NUGC3 cells at 0.1 uM by SRB assay; assay type: functional
NUGC-3 [3] = test: Antiproliferative activity against human NUGC3 cells at 1 uM by SRB assay; assay type: functional
NUGC-3 [4] = test: Antiproliferative activity against human NUGC3 cells at 10 uM by SRB assay; assay type: functional
NUGC-3 [5] = test: Antiproliferative activity against human NUGC3 cells at 3 uM by SRB assay; assay type: functional
MDA-MB-231 [6] = test: Antiproliferative activity against human MDA-MB-231 cells at 0.1 uM by SRB assay; assay type: functional
MDA-MB-231 [7] = test: Antiproliferative activity against human MDA-MB-231 cells at 0.3 uM by SRB assay; assay type: functional
MDA-MB-231 [8] = test: Antiproliferative activity against human MDA-MB-231 cells at 1 uM by SRB assay; assay type: functional
MDA-MB-231 [9] = test: Antiproliferative activity against human MDA-MB-231 cells at 10 uM by SRB assay; assay type: functional
MDA-MB-231 [10] = test: Antiproliferative activity against human MDA-MB-231 cells at 3 uM by SRB assay; assay type: functional
ACHN [11] = test: Antiproliferative activity against human ACHN cells at 0.1 uM by SRB assay; assay type: functional
ACHN [12] = test: Antiproliferative activity against human ACHN cells at 1 uM by SRB assay; assay type: functional
ACHN [13] = test: Antiproliferative activity against human ACHN cells at 0.3 uM by SRB assay; assay type: functional
ACHN [14] = test: Antiproliferative activity against human ACHN cells at 3 uM by SRB assay; assay type: functional
ACHN [15] = test: Antiproliferative activity against human ACHN cells at 10 uM by SRB assay; assay type: functional
NCI-H23 [16] = test: Antiproliferative activity against human NCI-H23 cells at 0.3 uM by SRB assay; assay type: functional
NCI-H23 [17] = test: Antiproliferative activity against human NCI-H23 cells at 0.1 uM by SRB assay; assay type: functional
NCI-H23 [18] = test: Antiproliferative activity against human NCI-H23 cells at 3 uM by SRB assay; assay type: functional
NCI-H23 [19] = test: Antiproliferative activity against human NCI-H23 cells at 1 uM by SRB assay; assay type: functional
NCI-H23 [20] = test: Antiproliferative activity against human NCI-H23 cells at 10 uM by SRB assay; assay type: functional
PC-3 [21] = test: Antiproliferative activity against human PC3 cells at 0.1 uM by SRB assay; assay type: functional
PC-3 [22] = test: Antiproliferative activity against human PC3 cells at 1 uM by SRB assay; assay type: functional
PC-3 [23] = test: Antiproliferative activity against human PC3 cells at 0.3 uM by SRB assay; assay type: functional
PC-3 [24] = test: Antiproliferative activity against human PC3 cells at 3 uM by SRB assay; assay type: functional
HCT-15 [25] = test: Antiproliferative activity against human HCT15 cells at 0.1 uM by SRB assay; assay type: functional
PC-3 [26] = test: Antiproliferative activity against human PC3 cells at 10 uM by SRB assay; assay type: functional
HCT-15 [27] = test: Antiproliferative activity against human HCT15 cells at 0.3 uM by SRB assay; assay type: functional
HCT-15 [28] = test: Antiproliferative activity against human HCT15 cells at 3 uM by SRB assay; assay type: functional
HCT-15 [29] = test: Antiproliferative activity against human HCT15 cells at 1 uM by SRB assay; assay type: functional
HCT-15 [30] = test: Antiproliferative activity against human HCT15 cells at 10 uM by SRB assay; assay type: functional
[31] = biological target: Rho-related GTP-binding protein RhoB (Homo sapiens) (UniProt P62745); test: Transactivation of RhoB in human HeLa cells by luciferase reporter assay; assay type: cell-based
Rho-related GTP-binding protein RhoB (Homo sapiens), sequence (P62745 whole entry): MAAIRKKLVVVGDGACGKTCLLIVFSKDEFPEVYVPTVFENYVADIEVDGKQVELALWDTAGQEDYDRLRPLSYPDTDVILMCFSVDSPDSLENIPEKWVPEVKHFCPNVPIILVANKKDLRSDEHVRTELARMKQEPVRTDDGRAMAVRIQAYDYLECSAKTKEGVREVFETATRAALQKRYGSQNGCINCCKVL

NCI-H23 [32] = test: Antiproliferative activity against human NCI-H23 cells by SRB assay; assay type: functional
NUGC-3 [33] = test: Antiproliferative activity against human NUGC3 cells by SRB assay; assay type: functional
HCT-15 [34] = test: Antiproliferative activity against human HCT15 cells by SRB assay; assay type: functional
ACHN [35] = test: Antiproliferative activity against human ACHN cells by SRB assay; assay type: functional
MDA-MB-231 [36] = test: Antiproliferative activity against human MDA-MB-231 cells by SRB assay; assay type: functional
PC-3 [37] = test: Antiproliferative activity against human PC3 cells by SRB assay; assay type: functional

| SMILES | growth, % of control at 0.3 µM (NUGC-3 [1]) [%] | growth, % of control at 0.1 µM (NUGC-3 [2]) [%] | growth, % of control at 1 µM (NUGC-3 [3]) [%] | growth, % of control at 10 µM (NUGC-3 [4]) [%] | growth, % of control at 3 µM (NUGC-3 [5]) [%] | growth, % of control at 0.1 µM (MDA-MB-231 [6]) [%] | growth, % of control at 0.3 µM (MDA-MB-231 [7]) [%] | growth, % of control at 1 µM (MDA-MB-231 [8]) [%] | growth, % of control at 10 µM (MDA-MB-231 [9]) [%] | growth, % of control at 3 µM (MDA-MB-231 [10]) [%] | growth, % of control at 0.1 µM (ACHN [11]) [%] | growth, % of control at 1 µM (ACHN [12]) [%] | growth, % of control at 0.3 µM (ACHN [13]) [%] | growth, % of control at 3 µM (ACHN [14]) [%] | growth, % of control at 10 µM (ACHN [15]) [%] | GI50 (NCI-H23 [32]) [nM] | GI50 (NUGC-3 [33]) [nM] | GI50 (ACHN [35]) [nM] | GI50 (MDA-MB-231 [36]) [nM] | GI50 (PC-3 [37]) [nM] | other results |
| --- | --- | --- | --- | --- | --- | --- | --- | --- | --- | --- | --- | --- | --- | --- | --- | --- | --- | --- | --- | --- | --- |
| CCCCCCCCCCCCCCCCCC(=O)NCC(C)(C)C[N+](C)(C)C | 72.3 | 79.4 | 46.7 | 26.4 | 17.7 | 78.5 | 78.8 | 70.9 | 26.8 | 41.6 | 86.5 | 71.3 | 79.6 | 43.5 | 45.8 | 1710 | 450 | 2300 | 1210 | 240 | growth, % of control at 0.3 µM (NCI-H23 [16]): 95.3%; growth, % of control at 0.1 µM (NCI-H23 [17]): 97.1%; growth, % of control at 3 µM (NCI-H23 [18]): 47.4%; growth, % of control at 1 µM (NCI-H23 [19]): 86.3%; growth, % of control at 10 µM (NCI-H23 [20]): 21.5%; growth, % of control at 0.1 µM (PC-3 [21]): 84.1%; growth, % of control at 1 µM (PC-3 [22]): 11.9%; growth, % of control at 0.3 µM (PC-3 [23]): 76.1%; growth, % of control at 3 µM (PC-3 [24]): -38.6%; growth, % of control at 0.1 µM (HCT-15 [25]): 97.1%; growth, % of control at 10 µM (PC-3 [26]): -47%; growth, % of control at 0.3 µM (HCT-15 [27]): 91.8%; growth, % of control at 3 µM (HCT-15 [28]): 46%; growth, % of control at 1 µM (HCT-15 [29]): 81.1%; growth, % of control at 10 µM (HCT-15 [30]): 27.5%; Activity [31]: Active; GI50 (HCT-15 [34]): 1730 nM |
| CCCCCCCCCCCCCC(=O)N(C)CCC[N+](C)(C)C | 70.3 | 85.1 | 35.7 | 13.7 | 23.3 | 95.2 | 98.7 | 88.9 | 23.8 | 54.6 | 81.1 | 72.4 | 82.2 | 41.2 | 21.2 | 560 | 320 | 1010 | 1780 | 320 | growth, % of control at 0.3 µM (NCI-H23 [16]): 99.1%; growth, % of control at 0.1 µM (NCI-H23 [17]): 97.3%; growth, % of control at 3 µM (NCI-H23 [18]): 8.98%; growth, % of control at 1 µM (NCI-H23 [19]): 61.8%; growth, % of control at 10 µM (NCI-H23 [20]): -5.73%; growth, % of control at 0.1 µM (PC-3 [21]): 86.7%; growth, % of control at 1 µM (PC-3 [22]): 32.1%; growth, % of control at 0.3 µM (PC-3 [23]): 87.1%; growth, % of control at 3 µM (PC-3 [24]): -1.93%; growth, % of control at 0.1 µM (HCT-15 [25]): 88%; growth, % of control at 10 µM (PC-3 [26]): -4.36%; growth, % of control at 0.3 µM (HCT-15 [27]): 90.9%; growth, % of control at 3 µM (HCT-15 [28]): 62%; growth, % of control at 1 µM (HCT-15 [29]): 82.6%; growth, % of control at 10 µM (HCT-15 [30]): 16.5%; Activity [31]: Active; GI50 (HCT-15 [34]): 1720 nM |
| C=CC[N+]1(CC)CCN(C(=O)CCCCCCCCCCCCCCC)CC1 | – | – | – | – | – | – | – | – | – | – | – | – | – | – | – | 880 | 270 | 500 | 680 | 370 | Activity [31]: Active |
| CCCCCCCCCCCCCC(=O)N(C)CCC[N+](C)(C)Cc1ccccc1 | 90 | 84.5 | 43.8 | -11.6 | 8.51 | 105 | 106 | 97.2 | -2.09 | 44.2 | 107 | 99.3 | 109 | 72.3 | 1.92 | 660 | 430 | 1890 | 1410 | 530 | growth, % of control at 0.3 µM (NCI-H23 [16]): 80%; growth, % of control at 0.1 µM (NCI-H23 [17]): 81%; growth, % of control at 3 µM (NCI-H23 [18]): 14.7%; growth, % of control at 1 µM (NCI-H23 [19]): 70.4%; growth, % of control at 10 µM (NCI-H23 [20]): -11.5%; growth, % of control at 0.1 µM (PC-3 [21]): 101%; growth, % of control at 1 µM (PC-3 [22]): 56.5%; growth, % of control at 0.3 µM (PC-3 [23]): 87.4%; growth, % of control at 3 µM (PC-3 [24]): 4.38%; growth, % of control at 0.1 µM (HCT-15 [25]): 89.9%; growth, % of control at 10 µM (PC-3 [26]): -13.1%; growth, % of control at 0.3 µM (HCT-15 [27]): 86.7%; growth, % of control at 3 µM (HCT-15 [28]): 78.5%; growth, % of control at 1 µM (HCT-15 [29]): 93.6%; growth, % of control at 10 µM (HCT-15 [30]): 25.1%; GI50 (HCT-15 [34]): 2830 nM |
| CCCCCCCCCCCCCCCC(=O)N(C)CC[N+](CC)(CC)Cc1ccccc1 | 84.8 | 92.7 | 31.4 | -9.3 | 1.3 | 105 | 96.5 | 82.1 | -4.4 | 33.2 | 83.4 | 52.3 | 86.3 | 28 | 1.6 | 1220 | 360 | 600 | 1130 | 310 | growth, % of control at 0.3 µM (NCI-H23 [16]): 112%; growth, % of control at 0.1 µM (NCI-H23 [17]): 113%; growth, % of control at 3 µM (NCI-H23 [18]): 39.7%; growth, % of control at 1 µM (NCI-H23 [19]): 75.4%; growth, % of control at 10 µM (NCI-H23 [20]): 6.5%; growth, % of control at 0.1 µM (PC-3 [21]): 86.6%; growth, % of control at 1 µM (PC-3 [22]): 25.8%; growth, % of control at 0.3 µM (PC-3 [23]): 80.4%; growth, % of control at 3 µM (PC-3 [24]): 1.4%; growth, % of control at 0.1 µM (HCT-15 [25]): 100%; growth, % of control at 10 µM (PC-3 [26]): -13.9%; growth, % of control at 0.3 µM (HCT-15 [27]): 101%; growth, % of control at 3 µM (HCT-15 [28]): 92.8%; growth, % of control at 1 µM (HCT-15 [29]): 99.4%; growth, % of control at 10 µM (HCT-15 [30]): 71.1%; GI50 (HCT-15 [34]): > 10000 nM |

Source: ChEMBL document CHEMBL2380247, “Synthesis and biological evaluation of novel aliphatic amido-quaternary ammonium salts for anticancer chemotherapy: part II” (2013)
